Experimental data as given in publication PMC11986975, “A Cdk5 inhibitor restores cognitive function and alleviates type 2 diabetes in mice” (iScience, 2025).

Experiments:
Cdk5/p35 = Cdk5/p35 (Homo sapiens, UniProt Q00535); test: Cdk5 kinase assay (ADP-Glo) with Cdk5/p35 complex; type: biochemical; conditions: 10 μM ATP, histone substrate, inhibitor 0-100 nM
Experimental: The test tube Cdk5 Kinase assay was performed utilizing Cdk5/p35 and Cdk5/p25 complexes as kinases, following the modified procedure outlined in a previous study,[52] using a Promega ADP-GloTM Kinase Assay kit. The reaction was carried out with 10 μM ATP and 2 μg of histone as the substrate for Cdk5 complexes. To study the inhibition patterns, 19 Cdk5 inhibitors (BLINK1-19) identified through molecular docking were added to the Cdk5 kinase reaction in increasing concentrations ranging from 0 to 100 nM. The IC50 (half-maximal inhibitory concentration) values of all the inhibitors were calculated based on Log(inhibitor) vs. normalized response using GraphPad software.

Cdk1/CylY = test: Specificity kinase assay, Cdk1 with cyclin Y; type: biochemical; conditions: inhibitor 0-100 nM; read-out: IC50, Cdk1 with activator cyclin Y
Sequence of Cdk1/CylY (P06493 whole entry): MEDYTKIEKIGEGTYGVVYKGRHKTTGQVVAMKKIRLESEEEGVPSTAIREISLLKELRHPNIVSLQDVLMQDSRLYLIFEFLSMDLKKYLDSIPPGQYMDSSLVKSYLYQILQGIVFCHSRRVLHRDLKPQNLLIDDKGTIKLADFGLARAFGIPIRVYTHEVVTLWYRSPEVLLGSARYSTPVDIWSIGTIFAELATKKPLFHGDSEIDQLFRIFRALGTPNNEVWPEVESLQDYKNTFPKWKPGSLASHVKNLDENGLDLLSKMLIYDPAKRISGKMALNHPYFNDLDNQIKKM
Sequence of Cdk1/CylY (Q8ND76 2-341 partner): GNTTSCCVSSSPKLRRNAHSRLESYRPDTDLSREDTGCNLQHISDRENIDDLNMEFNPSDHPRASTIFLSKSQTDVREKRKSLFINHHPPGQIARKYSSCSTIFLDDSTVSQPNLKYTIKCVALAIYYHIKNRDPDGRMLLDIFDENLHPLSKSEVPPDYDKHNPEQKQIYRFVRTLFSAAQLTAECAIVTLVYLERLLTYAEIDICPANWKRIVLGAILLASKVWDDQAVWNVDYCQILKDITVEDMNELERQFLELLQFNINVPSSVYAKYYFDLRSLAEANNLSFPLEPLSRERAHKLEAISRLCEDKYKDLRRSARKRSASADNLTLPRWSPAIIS
Excerpt: To assess the specificity of inhibitors BLINK11 and BLINK15 against CDK5, we investigated their effects on different Cdks, i.e., Cdk1, Cdk2, and Cdk9 that share structural homology with CDK5. […] However, these IC50 values were higher than those observed for CDK5/p35 and CDK5/p25. […] Overall, BLINK11 and BLINK15 can selectively target CDK5 at lower concentrations. […]
(§1) IC50 of all the kinases for both BLINK11 and BLINK15 inhibitors.

Cdk9/CylT = test: Specificity kinase assay, Cdk9 with cyclin T; type: biochemical; conditions: inhibitor 0-100 nM
Excerpt: To assess the specificity of inhibitors BLINK11 and BLINK15 against CDK5, we investigated their effects on different Cdks, i.e., Cdk1, Cdk2, and Cdk9 that share structural homology with CDK5. […] However, these IC50 values were higher than those observed for CDK5/p35 and CDK5/p25. […] Overall, BLINK11 and BLINK15 can selectively target CDK5 at lower concentrations.
ligands are illustrated with red lines. The RMSD plots for the interactions of BLINK11 and
Figure S3: BBB Permeability assay and Evaluation of non-specific kinase inhibition by
BLINK11 and BLINK15 (A-B) PAMPA assay results of BLINK11 and BLINK15 compound.
as §1
(1 picture or pasted object on this page, not shown here)

[1] = MTT cell toxicity assay in N2A cells; type: cell-based; conditions: mouse, N2A (Neuro2A) cells, all doses (25 to 100 μM)
Experimental: (§2) HEK293T, HepG2, and N2A cells were used in the study representing kidney, liver and neuronal cell lines respectively. The cells were cultured in DMEM supplemented with 10% fetal bovine serum and antibiotics at 37°C under 5% CO2. The cells were tested negative for mycoplasma.
(§3) To evaluate the compound toxicity for the Cdk5 inhibitors, an MTT assay was performed in HEK293T, HepG2, and N2A cells at varying concentrations. Six hours after cell seeding, the compounds were added in different amounts, and the cells were harvested after 24 h for further analysis. N2A cells were transfected using Lipofectamine-3000 reagent, co-transfecting with plasmids encoding Cdk5/p35 and Cdk5/p25 for 12 h, followed by inhibitor treatment to assess their effects in the cell culture system. The concentrations of each plasmids used was 1 μg, total of 3 μg per well for 6 well plates.

[2] = MTT cell toxicity assay in HEK293T cells; type: cell-based; conditions: human, all doses (25 to 100 μM)
Experimental: as §2, §3

[3] = PAMPA blood-brain barrier permeability assay (brain polar lipid extract); type: in vitro ADME; conditions: 7 h incubation, 100-500 uM, > 10*10^-6 cm/s = high permeability, read-out: Paap (PAMPA-BBB permeability)
Experimental: PAMPA assay was performed using a PAMPA filter plate (MAIPNTR10) coated with brain polar lipid extract (141101P) to evaluate blood-brain barrier (BBB) permeability of the compounds. The assay was performed with the help of the protocol provided by Merck Millipore on their official website and articles as cited.[62]^,[63] 5% of brain polar solution was used to coat the donor plate (15ul per well) by drying the plate in a fume hood. The acceptor plate was filled with 300ul of buffer (5% DMSO in PBS). The donor plate coated with brain polar solution was placed above the acceptor plate and different concentrations of Cdk5 inhibitor (100-500uM) dissolved in 5% DMSO were added to it (150ul per well). After 7 h of incubation, the absorbance was measured at broad spectrum 250–500 nm. […] For permeability, the Papp of the drugs was calculated.Paap = C ∗ -ln (1-[drugacceptor]/[Drugequilibrium]); C=VD∗VA/(VD + VA) ∗ area ∗ timePaap < 10∗10^−6 cm/s - Low permeability; Paap > 10∗10^−6 cm/s - high permeability

HFD-fed mice [4] = test: Insulin tolerance test (ITT) in HFD mice; type: in vivo; conditions: i.p., both dosages 20 and 40 mg/kg/day, 20 days
Experimental: For the glucose tolerance test, 2 g/kg of glucose was utilized, and 0.75U/kg of human insulin was employed The glucose tolerance test (GTT) and insulin tolerance test (ITT) were performed in HFD mice models after 20 weeks of HFD feeding followed by 20 days of drug administration.[48] For GTT the mice were kept in a fasting period for overnight before glucose injections of 2 g/kg intraperitoneally. For ITT the mice were kept in a fasting for 6 h prior to insulin injection of 0.75 U/kg intraperitoneally. A one-touch glucometer was used to assess the blood sugar levels at various intervals (0, 60, and 120 min) following intraperitoneal infusion of both glucose and insulin.[23]^,[49]^,[50]^,[51] After 20 weeks of a HFD and 20 days of drug administration, the tests were carried out.

HFD-fed mice [5] = test: Grip strength test in HFD mice; type: in vivo; conditions: i.p., 40 mg/kg/day, 20 days
Experimental: A grip strength meter was used to measure the forelimb grip strength in mice.[54] The mouse was given a chance to grab the gauge with its forelimbs before having its tail gently pulled back. Digital transducers were used to record the muscular force. Five trials were conducted on each mouse.[23]

[6] = test system: neurodegenerative markers in hippocampus; test: Western blot of hippocampal proteins (Cdk5, p35/p25, NF-H, p-NF-H, NF-L, tau, p-tau) in treated HFD mice; type: in vivo; conditions: i.p.
Experimental: For tissue lysate preparation the mice were sacrificed following the Institution’s ethical guidelines. The hippocampus was isolated from the rest of the brain and treated in a tissue lysis solution with a protease and phosphatase inhibitor cocktail. Western blotting was performed to study the expression patterns of the protein of interest. Each well of a polyacrylamide gel was loaded with an identical amount of protein lysate (40–50 μg), which was then transferred to the nitrocellulose membrane. In 1X PBS with 0.1% (v/v) Tween 20, the main antibodies were diluted.

Sequence of Cdk5/p35 (Q00535 whole entry, species assumed): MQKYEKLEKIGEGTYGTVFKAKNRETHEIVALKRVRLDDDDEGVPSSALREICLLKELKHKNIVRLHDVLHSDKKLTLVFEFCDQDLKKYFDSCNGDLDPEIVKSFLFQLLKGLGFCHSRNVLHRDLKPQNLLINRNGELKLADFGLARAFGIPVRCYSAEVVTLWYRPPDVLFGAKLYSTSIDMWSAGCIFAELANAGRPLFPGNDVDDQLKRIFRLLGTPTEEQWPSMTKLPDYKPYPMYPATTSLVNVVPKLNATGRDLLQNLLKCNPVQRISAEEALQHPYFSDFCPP
Sequence of Cdk5/p35 (Q15078 whole entry partner, species assumed): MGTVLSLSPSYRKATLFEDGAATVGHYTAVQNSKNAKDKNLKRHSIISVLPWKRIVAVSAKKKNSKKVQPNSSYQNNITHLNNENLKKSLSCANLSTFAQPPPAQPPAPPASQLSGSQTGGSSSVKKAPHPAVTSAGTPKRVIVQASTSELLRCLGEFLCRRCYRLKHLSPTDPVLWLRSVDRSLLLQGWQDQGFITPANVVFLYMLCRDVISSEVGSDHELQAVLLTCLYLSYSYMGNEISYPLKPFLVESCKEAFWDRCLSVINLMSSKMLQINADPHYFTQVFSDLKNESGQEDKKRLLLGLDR

Compound	IC50 (Cdk5/p35)	IC50 (Cdk1/CylY)	Inhibition of Cdk9 (with cyclin T) (Cdk9/CylT)	viability at 24 h [1]	viability at 24 h [2]	Papp at 7 h [3]	Insulin tolerance test (ITT) (HFD-fed mice [4])	Grip strength (HFD-fed mice [5])	Hippocampal expression levels of CDK5 ([6]; 20 days)	p25 generation in hippocampus ([6]; 20 days)	neurofilament light chain (NF-L) levels in hippocampus ([6]; 20 days)	phospho-tau-396Ser levels in hippocampus ([6]; 20 days)	phospho-NF-H levels in hippocampus ([6]; particularly at a higher dose)
COc1ccc(C(=O)C[C@@]2(O)C(=O)N(Cc3ccccc3)c3ccc(Br)cc32)cc1[N+](=O)[O-] [BLINK15]	29.3 nM	35.8 nM	minimal inhibition	> 50%	> 50%	> 10 ×10⁻⁶ cm/s	significant rescue	rescue behavior	remain unaltered	remains unchanged	–	–	–
O=C(COc1ccccc1C(=O)Nc1cccc(Cl)c1Cl)Nc1ccc(N2CCOCC2)c(Cl)c1 [BLINK11, 2-(2-((3-chloro-4-morpholinophenyl)amino)-2-oxoethoxy)-N-(2,3-dichlorophenyl)benzamide]	17.1 nM	39.3 nM	minimal inhibition	> 50%	> 50%	> 10 ×10⁻⁶ cm/s	significant rescue	rescue behavior	remain unaltered	remains unchanged	restored	significantly decreased	significantly reduced
